How the values were obtained:
[1] = Number and type of adverse effects reported in treated canines; type: in vivo; settings: canine subjects with cancer; for subjects with clinically reported outcomes that experienced adverse effects: diarrhea, vomiting, inappetence, lethargy, skin lesions, liver enzymes, cardiac toxicity, hemorrhagic gastroenteritis monitored, cohorts 192, 94, 162, 275, 89, 83, 9 subjects
Description: Canine subjects with cancer were treated with pharmaceutical compositions comprising Rapamycin and were monitored for adverse effects including: diarrhea, vomiting inappetence, lethargy, skin lesions, progressive liver enzyme evaluations, increased cardiac toxicity and hemorrhagic gastroenteritis.
Canine subjects with cancer were treated with pharmaceutical compositions comprising Dasatinib and were monitored for adverse effects including: diarrhea, vomiting inappetence, lethargy, skin lesions, progressive liver enzyme evaluations, increased cardiac toxicity and hemorrhagic gastroenteritis.
Canine subjects with cancer were treated with pharmaceutical compositions comprising Vorinostat and were monitored for adverse effects including: diarrhea, vomiting inappetence, lethargy, skin lesions, progressive liver enzyme evaluations, increased cardiac toxicity and hemorrhagic gastroenteritis.
Canine subjects with cancer were treated with pharmaceutical compositions comprising Crizotinib and were monitored for adverse effects including: diarrhea, vomiting inappetence, lethargy, skin lesions, progressive liver enzyme evaluations, increased cardiac toxicity and hemorrhagic gastroenteritis.
Canine subjects with cancer were treated with pharmaceutical compositions comprising Sorafenib and were monitored for adverse effects including: diarrhea, vomiting inappetence, lethargy, skin lesions, progressive liver enzyme evaluations, increased cardiac toxicity and hemorrhagic gastroenteritis.

cancer = test: Treatment of canine cancers with targeted drug, disease progression and overall survival compared to historical controls; type: in vivo; settings: alone or in combination with other anti-cancer agents
Description: (§1) Canine subjects with cancer were treated with Rapamycin alone or in combination with other anti-cancer agents (Tables 3 and 12-26). The subjects were administered Rapamycin orally with a starting dose of 0.1 mg/kg/day and were monitored for disease progression compared to historical controls.
Canine subjects with cancer were treated with Dasatinib alone or in combination with other anti-cancer agents (Tables 4 and 12-26). The subjects were administered Dasatinib orally with a starting dose of 0.5-0.7 mg/kg/day and were monitored for disease progression compared to historical controls.
as §1, with “Vorinostat” for “Rapamycin”, “7” for “3”, “30-60 mg/kg/every other day” for “0.1 mg/kg/day”
as §1, with “Crizotinib” for “Rapamycin”, “(Table 9” for “(Tables 3”, “1 mg/kg/day-2” for “0.1”
as §1, with “Sorafenib” for “Rapamycin”, “10” for “3”, “1 mg/kg/day-3” for “0.1”, “mg/kg/day or 1 mg/kg/day-3 mg/kg/week” for “mg/kg/day”

C[C@@H](Oc1cc(-c2cnn(C3CCNCC3)c2)cnc1N)c1c(Cl)ccc(F)c1Cl [Crizotinib]
subjects with clinically reported outcomes that experienced adverse effects [1]: 43% | overall survival compared to control subjects (cancer; Crizotinib orally, starting dose 1 mg/kg/day-2 mg/kg/day): significant improvement

Cc1nc(Nc2ncc(C(=O)Nc3c(C)cccc3Cl)s2)cc(N2CCN(CCO)CC2)n1 [Dasatinib]
subjects with clinically reported outcomes that experienced adverse effects [1]: 31%

Cc1ccc(NC(=O)c2ccc(CN3CCN(C)CC3)cc2)cc1Nc1nccc(-c2cccnc2)n1 [Imatinib]
overall survival compared to control subjects (cancer; Imatinib orally, starting dose 10 mg/kg/day): significant improvement

CS(=O)(=O)CCNCc1ccc(-c2ccc3ncnc(Nc4ccc(OCc5cccc(F)c5)c(Cl)c4)c3c2)o1 [Lapatinib]
subjects with clinically reported outcomes that experienced adverse effects [1]: 22% | overall survival compared to control subjects (cancer; Lapatinib orally, starting dose 5-10 mg/kg/day): significant improvement

CO[C@H]1C[C@@H]2CC[C@@H](C)[C@@](O)(O2)C(=O)C(=O)N2CCCC[C@H]2C(=O)O[C@H]([C@H](C)C[C@@H]2CC[C@@H](O)[C@H](OC)C2)CC(=O)[C@H](C)/C=C(\C)[C@@H](O)[C@@H](OC)C(=O)[C@H](C)C[C@H](C)/C=C/C=C/C=C/1C [Rapamycin]
subjects with clinically reported outcomes that experienced adverse effects [1]: 21%

CNC(=O)c1cc(Oc2ccc(NC(=O)Nc3ccc(Cl)c(C(F)(F)F)c3)cc2)ccn1 [Sorafenib]
subjects with clinically reported outcomes that experience adverse effects ([1]; result in words): A minority of subjects | overall survival compared to control subjects (cancer; Sorafenib orally, starting dose 1 mg/kg/day-3 mg/kg/day or 1 mg/kg/day-3 mg/kg/week): significant improvement

CC(=O)Nc1cccc(-n2c(=O)n(C3CC3)c(=O)c3c(Nc4ccc(I)cc4F)n(C)c(=O)c(C)c32)c1 [Trametinib]
subjects with clinically reported outcomes that experienced adverse effects [1]: 24%

O=C(CCCCCCC(=O)Nc1ccccc1)NO [Vorinostat]
subjects with clinically reported outcomes that experienced adverse effects [1]: 34% | overall survival compared to control subjects (cancer; Vorinostat orally, starting dose 30-60 mg/kg/every other day): significant improvement

Source: patent US12036281B2 (ONEHEALTHCOMPANY, INC., priority 2019, dated 2024)
